Measurements as given in publication PMC5607274, “An iterative compound screening contest method for identifying target protein inhibitors using the tyrosine-protein kinase Yes” (Scientific Reports, 2017).

Target: T1, human recombinant Yes [a.a. 2–543 (end)] (Homo sapiens, UniProt P07947)
T1 construct: human recombinant Yes [a.a; 2–543 (end)]; purchased BPS Bioscience 40488
Experiment: ADP-Glo kinase assay, inhibition rates of Yes phosphorylation activity (first and second screening)
Type: biochemical
Settings: 10 μmol L−1 compound; for First screening IR (inhibition rate): mean of n = 4 wells; for Second screening IR (inhibition rate): dissolved from fresh powder, n = 4
How it was run: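 ADP-Glo luminescence measured inhibition of human recombinant Yes (a.a. 2–543) phosphorylation activity. In the first screen, each compound ran in 4 wells and inhibition rates were averaged. The second screen retested hits as compounds dissolved from fresh powder.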

T1 sequence (P07947 2-543): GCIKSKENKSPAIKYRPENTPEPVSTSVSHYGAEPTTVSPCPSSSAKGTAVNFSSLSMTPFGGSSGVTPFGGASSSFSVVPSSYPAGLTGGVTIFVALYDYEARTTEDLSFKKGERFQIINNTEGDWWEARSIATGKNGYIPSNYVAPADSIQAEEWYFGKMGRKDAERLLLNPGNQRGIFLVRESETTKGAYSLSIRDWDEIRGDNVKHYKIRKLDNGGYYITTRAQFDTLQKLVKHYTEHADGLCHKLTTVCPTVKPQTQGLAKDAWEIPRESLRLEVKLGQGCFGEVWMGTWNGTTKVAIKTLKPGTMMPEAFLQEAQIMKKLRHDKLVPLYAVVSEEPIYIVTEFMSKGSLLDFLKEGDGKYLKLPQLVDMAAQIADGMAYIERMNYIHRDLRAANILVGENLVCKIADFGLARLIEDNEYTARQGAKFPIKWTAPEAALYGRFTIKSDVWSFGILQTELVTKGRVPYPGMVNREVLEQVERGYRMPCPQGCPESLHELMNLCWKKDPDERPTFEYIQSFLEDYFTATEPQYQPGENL

| Structure (SMILES) | First screening IR (inhibition rate) [%] | Second screening IR (inhibition rate) [%] |
| --- | --- | --- |
| N#Cc1ccccc1CSCCNc1cc(=O)n2ccccc2n1 [Compound Z203909940] | -8 | – |
| CC(C)c1cccc(NC(=O)CN(C)CC(=O)N2c3ccccc3NC(=O)CC2C)c1 (stereo not shown) [Compound Z203963094] | -10 | – |
| O=C(c1ccc(Cl)c(S(=O)(=O)N2CCCCC2)c1)N1CCn2c1nc1ccccc12 [Compound Z204253774] | -4 | – |
| O=C(Nc1cc(-c2cccc([N+](=O)[O-])c2)sc1C(=O)O)c1cc2c(s1)CCC2 [Compound Z204341220] | -3 | – |
| O=C(/C=C/c1ccco1)Nc1cc(-c2cccc([N+](=O)[O-])c2)sc1C(=O)O [Compound Z204341820] | -3 | – |
| O=C(/C=C/c1cccs1)Nc1cc(-c2cccc([N+](=O)[O-])c2)sc1C(=O)O [Compound Z204342158] | 58 | -7 |
| O=C(Nc1cc(-c2cccc([N+](=O)[O-])c2)sc1C(=O)O)c1ccc2c(c1)OCCO2 [Compound Z204342356] | -1 | – |
| O=C(Nc1cc(-c2cccc([N+](=O)[O-])c2)sc1C(=O)O)c1ccc2c(c1)CCC2 [Compound Z204342388] | -1 | – |
| CC(Sc1nc2ncccn2n1)C(=O)Nc1ccc(Cl)cc1Cl (stereo not shown) [Compound Z207321514] | 5 | – |
| O=c1[nH]c2ccccc2c2nc(-c3ccc(CSc4nc5ccccc5[nH]4)cc3)nn12 [Compound Z208192218] | 16 | – |
| Cc1cc(COC(=O)c2cc(-c3cccs3)nc3c2cnn3C(C)C)no1 [Compound Z215601214] | -2 | – |
| CC(C)n1ncc2c(C(=O)Nc3ccccc3F)cc(-c3ccco3)nc21 [Compound Z216407296] | 37 | – |
| CC(=O)c1cccc(NC(=O)c2cc(-c3ccco3)nc3c2cnn3C(C)C)c1 [Compound Z216416610] | -1 | – |
| CC(C)n1ncc2c(C(=O)Nc3ccc(F)cc3Cl)cc(-c3ccco3)nc21 [Compound Z216417110] | 21 | – |
| CC(C)n1ncc2c(C(=O)Nc3ccc(F)c([N+](=O)[O-])c3)cc(-c3ccco3)nc21 [Compound Z216541962] | -1 | – |
| CC(C)n1ncc2cc(C(=O)Nc3ccc4[nH]c(=O)[nH]c4c3)cnc21 [Compound Z217430364] | -10 | – |
| Cc1ccc(C(N)=O)c(OCc2ccc(C#N)cc2F)c1 [Compound Z217923492] | 9 | – |

| Structure (SMILES) | First screening IR (inhibition rate) [%] | Second screening IR (inhibition rate) [%] |
| --- | --- | --- |
| O=C(NCc1ccc(-c2nc3ccccc3s2)o1)c1ccco1 [Compound Z218238558] | 12 | – |
| COc1cc(NC(=O)COC(=O)c2cc(-c3cccs3)nc3onc(C)c23)cc(OC)c1 [Compound Z218834328] | 6 | – |
| Cc1ccnc(NC(=O)c2cc(-c3ccc(F)cc3)nc3onc(C)c23)c1 [Compound Z219812624] | -14 | – |
| Cc1[nH]c(=O)[nH]c(=O)c1CCC(=O)N1CCC(CCc2ccccc2)CC1 [Compound Z219953062] | 4 | – |
| N#Cc1c(CN2CCN(S(=O)(=O)c3cc(Cl)ccc3Cl)CC2)cn2ccccc12 [Compound Z220381008] | -9 | – |
| Cc1ccccc1-c1nc(SCc2cn3cc(Cl)ccc3n2)n[nH]1 [Compound Z221422064] | 36 | – |
| Cc1nn(C)c2nc(-c3ccccc3)cc(C(=O)Nc3ccc4c(c3)OCO4)c12 [Compound Z222976544] | -2 | – |
| Cl.Fc1c(-c2ccccc2)nc2ccc(Cl)cc2c1-c1ccccc1 [Compound Z223042638] | -12 | – |
| Cl.Fc1c(-c2ccccc2)nc2ccccc2c1-c1ccccc1 [Compound Z223042658] | 30 | – |
| CCCCN(C1CCS(=O)(=O)C1)S(=O)(=O)c1ccc(Br)cc1Cl (stereo not shown) [Compound Z223263980] | 5 | – |
| COc1cc(C(=O)NCCc2ccc(-n3cccn3)cc2)ccc1C [Compound Z223337292] | 3 | – |
| CC1=CC(=C(C#N)c2nc3ccccc3s2)C=C(C)N1c1ccc2c(c1)OCCO2 [Compound Z223450274] | -6 | – |
| Cn1ncc2c(N3CCNCC3)ncnc21 [Compound Z223639244] | -11 | – |
| CCOc1ccc(N2C(C)=CC(=C(C#N)c3nc4ccccc4s3)C=C2C)cc1 [Compound Z223690154] | 20 | – |
| Cn1c(=O)n(CCN2CCOCC2)c(=O)c2c1nc1n2CCN1c1ccc(Oc2ccccc2)cc1 [Compound Z223838602] | 49 | -4 |
| O=C(O)c1cc(-c2ccccc2)nc2c1cnn2Cc1ccccc1Cl [Compound Z223844412] | 7 | – |
| O=C(O)/C=C/c1ccc(NC(=O)CSC(c2ccccc2)c2ccccc2)cc1 [Compound Z224289160] | -8 | – |

Next, values leading:

| First screening IR (inhibition rate) [%] | Second screening IR (inhibition rate) [%] | Structure (SMILES) |
| --- | --- | --- |
| 6 | – | CCn1ncc2c(C(=O)NC(C)C)cc(-c3ccccc3)nc21 [Compound Z223848612] |
| -16 | – | CCn1ncc2c(C(=O)N(C)Cc3ccccc3)cc(-c3ccccc3)nc21 [Compound Z223859126] |
| -12 | – | CCN(CC)C(=O)c1cc(-c2cc(C)oc2C)nc2c1cnn2C(C)C [Compound Z223881508] |
| -1 | – | COC(=O)c1cc(NC(=O)C2=C(Cl)CCCC2)cc(C(=O)OC)c1 [Compound Z223943920] |
| 10 | – | CCn1ncc2c(C(=O)Nc3ncc(C)s3)cc(-c3ccccc3)nc21 [Compound Z224316064] |
| 6 | – | CCn1ncc2c(C(=O)NCc3cccc(OC)c3)cc(-c3ccccc3)nc21 [Compound Z224328394] |
| -5 | – | O=S(=O)(c1ccccc1Cl)N1CCN(Cc2nc(-c3cccc(C(F)(F)F)c3)no2)CC1 [Compound Z224344580] |
| -5 | – | CCn1ncc2c(C(=O)N(C)Cc3ccc(SC)cc3)cc(-c3ccccc3)nc21 [Compound Z224588706] |
| -4 | – | CCn1ncc2c(C(=O)N3CCN(CC(=O)Nc4cccc(C)c4C)CC3)cc(-c3ccccc3)nc21 [Compound Z224933090] |
| 2 | – | CCn1ncc2c(C(=O)NCc3cc(OC)c(OC)cc3OC)cc(-c3ccccc3)nc21 [Compound Z224953910] |
| 16 | – | Cc1ccc(-c2cc(C(=O)NC(C)c3ccccn3)c3cnn(C(C)C)c3n2)cc1 (stereo not shown) [Compound Z225035912] |
| 31 | – | CCn1ncc2c(C(=O)Nc3ccc(F)c([N+](=O)[O-])c3)cc(-c3cccs3)nc21 [Compound Z225316878] |
| 0 | – | Cc1cccn2c(NC(=O)c3cccc(S(=O)(=O)NC(C)C)c3)c(-c3ccccc3)nc12 [Compound Z225376048] |
| -8 | – | CCOC(=O)c1[nH]c(C)c(C(=O)CSc2n[nH]c(-c3ccccc3)n2)c1C [Compound Z225443610] |
| 1 | – | Cc1csc(CNC(=O)c2cc(-c3ccccc3)nc3c2cnn3C(C)C)n1 [Compound Z225893888] |
| 9 | – | CCN(CC)S(=O)(=O)c1c[nH]c(C(=O)NCc2nc(C)cs2)c1 [Compound Z225896678] |
| -2 | – | Cc1ccc(-c2cc(C(=O)NC(c3ccccc3F)c3nccn3C)c3cnn(C(C)C)c3n2)s1 (stereo not shown) [Compound Z225919834] |
| 4 | – | COc1ccc(/C=C/c2noc(C)c2NC(=O)c2cccs2)cc1 [Compound Z226257158] |
| 13 | – | O=C(NCc1ccc(COCC(F)(F)F)cc1)c1ccc2nc[nH]c2c1 [Compound Z226277016] |
| 6 | – | CC1CN(C(C)(C)CNC(=O)c2ccc(NS(=O)(=O)c3ccccc3)cc2)CC(C)O1 (stereo not shown) [Compound Z226329302] |
| 3 | – | O=C(CCNC(=O)c1ccco1)Nc1ccc2nc(N3CCCC3)sc2c1 [Compound Z226430254] |
| -34 | – | Nc1nc(CSc2ncc(-c3ccc(F)cc3)o2)nc2ccccc12 [Compound Z226851604] |
| 6 | – | COCCOC(=O)c1cc(-c2ccc(C)cc2)nc2c1cnn2C(C)C [Compound Z226924464] |
| 2 | – | CCn1ncc2c(C(=O)OCC#N)cc(-c3cccs3)nc21 [Compound Z227189870] |
| 48 | – | Cc1cc(COC(=O)c2cc(-c3ccc4c(c3)OCCO4)nc3c2cnn3C(C)C)on1 [Compound Z227321660] |
| -10 | – | CCCn1c(CSc2ncn(-c3ccccc3)n2)nc2cc(S(=O)(=O)N(C)C)ccc21 [Compound Z227429876] |
| 6 | – | CCNC(=O)c1cc(-c2ccccc2)nc2c1cnn2Cc1ccccc1 [Compound Z227991512] |
| 14 | – | CCN(CC)CCn1c(NC(=O)c2ccc(OCC(F)(F)F)nc2)nc2ccccc21 [Compound Z228032620] |
